In US9510581B2, “Bed bug lures” (Rutgers, The State University of New Jersey, priority 2011, dated 2016):

Tests used:
Assay type in all cases: in vivo, Cimex lectularius L.
[1] = system: bed bugs; assay: Screening of chemical lures in four-choice pitfall trap bioassays; conditions: for Trap catch versus corresponding unbaited control: four-choice bioassays, P<0.05; for Percent catch of bed bugs in pitfall traps, Mean (%) ± SE: four-choice: three lures and an unbaited control per arena, 50 μl lure, plastic tray arena, 50 bugs, 8 hours
Experimental: Bed bugs were collected from an infested house in Lakewood, N.J. They were maintained in plastic containers (4.7 cm height and 5 cm diameter) with folded paper as harborages at 26° C.±1° C., 40±10% relative humidity, a 12:12 hour (L:D) photoperiod, and were deprived of food for the entire duration of the study. All bioassays were conducted within 3 months after bed bugs were collected.
Pitfall traps were used to evaluate the attractiveness of lures. The pitfall trap was an inverted plastic dog bowl (600 ml volume, 18 cm diameter, 6.4 cm deep and 1 mm thickness) (IKEA, Baltimore, Md., USA) (FIG. 1a). The outer wall of the trap was covered with a layer of paper surgical tape (Caring International, Mundelein, Ill., USA), which was painted black with ColorPlace spray paint (WalMart Stores Inc., Bentonville, USA).
Two types of experimental arenas were used: a) wooden door arenas (200 by 76 cm by 6.4 cm) (length by width by height) with wooden floor, and b) plastic tray arenas (80 by 75 by 5 cm) (length by width by height) with bottom lined with brown paper (FIG. 1b). A layer of fluoropolymer resin (DuPont Polymers, Wilmington, Del., USA) was applied to inner walls of the experimental arenas to prevent the bugs from escaping. A layer of this resin was also applied to inner walls of the pitfall traps in a similar fashion to confine the bed bugs that fell into the traps. A filter paper (15 cm diameter) was placed on the floor in the center of each arena, and then a plastic ring (13.3 cm diameter and 6.4 cm height) was placed on the filter paper for confining the bed bugs. A piece of folded cardboard and folded fabric was placed on the filter paper to provide harborages for bed bugs. Six additional paper harborages measuring 5.1 cm long and 3.3 cm wide were placed along the edges of the floor of each wooden arena. Two wooden door arenas were located at least 6 m away from each other in a 15 m long and 9 m wide room at 23-25° C. Two additional wooden door arenas were located in two 4 m long and 2.3 m wide rooms at 24-25° C. These rooms had normal air current through vents on the ceilings or through the open door. In experiments using plastic tray arenas, four arenas were placed simultaneously in a non-ventilated, closed room measuring 4 m long and 2.3 m wide at 24-25° C. A 12:12 hour (L:D) cycle was maintained in all the rooms that were used for bioassays. […]
Twelve known or potential bed bug chemical lures (Table 1) were evaluated for their attractiveness to bed bugs in plastic tray arenas.

[2] = system: bed bugs; assay: Attractiveness of chemical lures in two-choice pitfall trap bioassays; conditions: baited versus unbaited trap, Kruskal-Wallis / Tukey's HSD
Experimental: These chemicals were further evaluated to confirm their attractiveness to bed bugs using two-choice assays. The experimental setup and testing procedure were similar to those described above however only two traps were placed at opposite corners of each arena (FIG. 1b). One trap was used as an unbaited control and the other trap received a chemical lure. Each chemical lure was evaluated 8 times over two consecutive days. The baited and non-baited trap positions in each arena were switched on the second day to eliminate any positional effect that could influence the trap catch. Percent attraction in multiple comparison experiments involving a control was calculated as: Percent attraction=100×(T−C)/Total, where “T” is the number of bed bugs in the baited pitfall trap and “C” is the number of bed bugs in the non-baited pitfall trap. “Total” is the total number of healthy bugs in each experiment arena at time of recording the bed bug locations. The percent catch is the number of bed bugs found in a pitfall trap divided by number of healthy bed bugs in each arena at the time of recording the results. Positive values indicate attraction to the treatment and negative values indicate repellency; and the values range from −100 (complete repellency) to +100 (complete attraction). For the paired design experiments, mean percent catch were analyzed by paired t-test (P=0.05). […]

[3] = system: bed bugs; assay: Relative attractiveness of four chemical lures in four-choice bioassays; conditions: for Percent of bed bugs captured in baited pitfall traps: four traps per arena, each baited with one of four chemicals, four replicates
Experimental: Four traps in each arena were baited with one of these chemicals. Four arenas were used to obtain four replicates. Percent attraction in multiple comparison experiments involving a control was calculated as: Percent attraction=100×(T−C)/Total, where “T” is the number of bed bugs in the baited pitfall trap and “C” is the number of bed bugs in the non-baited pitfall trap. “Total” is the total number of healthy bugs in each experiment arena at time of recording the bed bug locations. The percent catch is the number of bed bugs found in a pitfall trap divided by number of healthy bed bugs in each arena at the time of recording the results. Positive values indicate attraction to the treatment and negative values indicate repellency; and the values range from −100 (complete repellency) to +100 (complete attraction). For the paired design experiments, mean percent catch were analyzed by paired t-test (P=0.05). Mean percent attractions among the treatments were compared using the non-parametric Kruskal-Wallis tests followed by Tukey's HSD test. The data for Experiment 2.10.1 and 2.10.2 were pooled for analyzing differences among treatments (treatment×day interaction was insignificant from Analysis of Variance test).

[4] = system: bed bugs; assay: Effect of CO2 release rates on bed bug trap efficacy, door arenas; conditions: release rates 200, 300, 400 and 500 ml/min
Experimental: The two traps were placed at opposite ends equidistant (85 cm) from the center. The experiment was tested over 4 consecutive days. On each day, a different CO2 release rate was used in each arena following a Latin square design. The CO2 source was 5 lb cylinders (Airgas East Inc., Piscataway, N.J., USA). The tested release rates were: 200, 300, 400 and 500 ml/min. The rate was determined as ml of water displaced by CO2 per unit of time using a Bubble-O-Meter (Bubble-O-Meter, Dublin, Ohio, USA). The CO2 was introduced into 240 ml plastic cups that were placed on the pitfall traps (FIG. 1c). Two holes were made on the lid of each plastic cup for CO2 to escape. Fifty bed bug nymphs and adult males were released into the center of each arena and confined with a plastic ring. The bugs were acclimated for approximately 15 hours before starting the treatments. At 1 hour after dark cycle, the plastic ring confining the bugs was removed. The numbers of bed bugs trapped in the pitfall traps and those in the arenas were collected and counted after 8 hours. […] The number of dead or moribund bed bugs in each arena was very low (<5%) in all the bioassays. After counting, dead and moribund bugs were replaced with healthy bugs in each arena. All bugs were placed back to the center of the arenas and confined with plastic rings for 15 hours before starting next bioassay.

Compound | Trap catch versus corresponding unbaited control [1] | Percent catch of bed bugs in pitfall traps, Mean (%) ± SE [1] | further results
C[C@H](O)C(=O)O [L-lactic acid] | significantly higher number of bugs than their corresponding controls | 25.7 ± 2.7a % | –
CC(=O)CCC=C(C)C [6-Methyl-5-Hepten-2-one] | – | 20.9 ± 2.52ab % | –
OCc1ccccc1 [Benzyl alcohol] | – | 25.1 ± 3.4ab % | –
CC(O)c1ccccc1 (stereo not drawn) [Styralol] | – | 16.4 ± 2.4bc % | –
C=CC(O)CCCCC (stereo not drawn) [1-octen-3-ol] | significantly higher number of bugs than their corresponding controls | 28.3 ± 2.5a^a % | Attraction compared among lures (percent attraction) [2]: not significantly different from nonanal; Percent of bed bugs captured in baited pitfall traps [3]: 17.0±1.8%
CC(=O)CC/C=C(/C)CCC=C(C)C [Z-Geranyl Acetone] | – | 13.0 ± 2.4a % | –
L-carvone | significantly higher number of bugs than their corresponding controls | 27.5 ± 3.5a % | –
CCCCCCCCC=O [Nonanal] | significantly higher number of bugs than their corresponding controls | 27.7 ± 3.2a % | Attraction compared among lures (percent attraction) [2]: significantly more attractive than L-lactic acid, and L-carvone; Percent of bed bugs captured in baited pitfall traps [3]: 34.0±4.6%; Attractiveness relative to spearmint oil, 1-octen-3-ol or coriander Egyptian oil ([3]; four-choice comparison, P=0.01): approximately 2 fold
O=C=O [CO2, carbon dioxide] | – | – | Attraction of bed bugs to traps baited with CO2 [4]: very attractive to bed bugs regardless of the CO2 release rates
